Assay results published in ChEMBL document CHEMBL1159175, “Thiophenoxy peptides: A new class of HIV replication inhibitors” (Bioorg Med Chem Lett, 1996).
Square brackets hold non-standard residues; d marks the D form. Peptide text beside a SMILES is read from it. * marks the point of attachment. Fmoc = O=C(OCC1c2ccccc2-c2ccccc21)*; Gly(SPh) = N[C@@H](Sc1ccccc1)C(=O)O

Assays:
MT4 [1] = experiment: In vitro antiviral activity against HIV-1 replication in MT-4 cells was determined by 50% inhibition of syncytia formation: Inactive; format: functional, cell-based, Homo sapiens
MT4 [2] = experiment: In vitro antiviral activity against HIV-1 replication in MT-4 cells was determined by 50% inhibition of syncytia formation: Inactive / toxic; format: functional, cell-based, Homo sapiens
MT4 [3] = experiment: In vitro antiviral activity against HIV-1 replication in MT-4 cells was determined by 50% inhibition of syncytia formation; format: functional, cell-based; conditions: Homo sapiens
[4] = Therapeutic index was determined by the ratio of ID50/IC50 (ID50: Dose required to cause death of 50% of uninfected MT-4 cells); format: cell-based, MT4; conditions: human, MT-4 cells (uninfected, for ID50); read-out: TI

In the case of `C=CCOC(=O)C(NC(=O)C(CC(C)C)NC(=O)OC(C)(C)C)Sc1ccccc1` (stereo not given), the IC50 (MT4 [1]) is reported as “Not Active”.

For `CC[C@H](C)[C@H](NC(=O)OCC1c2ccccc2-c2ccccc21)C(=O)N[C@@H](CCCN=C(N)N)C(=O)N[C@@H](CCCCN)C(=O)N[C@H](C(=O)N[C@@H](CC(C)C)C(=O)N[C@@H](Sc1ccccc1)C(=O)N[C@@H](CC(C)C)C(=O)N[C@@H](CC(=O)O)C(=O)NCC(N)=O)[C@@H](C)CC` (Fmoc-IRKIL[Gly(SPh)]LDG-NH2), the IC50 (MT4 [2]) was “Toxic”.

`CC[C@H](C)[C@H](N)C(=O)N[C@@H](CCCN=C(N)N)C(=O)N[C@@H](CCCCN)C(=O)N[C@H](C(=O)N[C@@H](CC(C)C)C(=O)N[C@@H](Sc1ccccc1)C(=O)N[C@@H](CC(C)C)C(=O)N[C@@H](CC(=O)O)C(=O)NCC(=O)N[C@H](C(=O)O)[C@@H](C)CC)[C@@H](C)CC` (H-IRKIL[Gly(SPh)]LDGI-OH) showed an IC50 (MT4 [3]) of 10 µM and a selectivity ratio [4] of 10.

For `CC[C@H](C)[C@H](NC(=O)CNC(=O)[C@H](CC(=O)O)NC(=O)[C@H](CC(C)C)NC(=O)[C@@H](NC(=O)[C@H](CC(C)C)NC(=O)[C@@H](NC(=O)[C@H](CCCCN)NC(=O)[C@H](CCCN=C(N)N)NC(=O)[C@@H](NC(=O)OCC1c2ccccc2-c2ccccc21)[C@@H](C)CC)[C@@H](C)CC)Sc1ccccc1)C(=O)O` (Fmoc-IRKIL[Gly(SPh)]LDGI-OH), the IC50 (MT4 [3]) was 100 µM and the selectivity ratio [4] was 10.

Compound `CC[C@H](C)[C@H](N)C(=O)N[C@@H](CCCN=C(N)N)C(=O)N[C@@H](CCCCN)C(=O)N[C@H](C(=O)N[C@@H](CC(C)C)C(=O)N[C@@H](Sc1ccccc1)C(=O)N[C@@H](CC(C)C)C(=O)N[C@@H](CC(=O)O)C(=O)NCC(N)=O)[C@@H](C)CC` (H-IRKIL[Gly(SPh)]LDG-NH2) has an IC50 (MT4 [3]) of 5 µM and a selectivity ratio [4] of 50.

In the case of H-IRKILFLDGI-OH, the IC50 (MT4 [1]) is reported as “Not Active”.

With `CC(C)CC(NC(=O)OC(C)(C)C)C(=O)NC(Sc1ccccc1)C(=O)O` (stereo not given) the IC50 (MT4 [1]) was “Not Active”.
